Test results: ChEMBL document CHEMBL3885861, “Open TG-GATES”

Species on record: Rattus norvegicus
Assay: Open TG-GATES - Regimen: Single
Assay type: toxicity, organism-based, Sprague-Dawley
Design: regimen Single, gender Male, age 6 weeks
Details: in vivo, iv, route intravenous injection; for KIDNEY_L / KIDNEY_R / KIDNEY_TOTAL: tissue Kidney; for LIVER: tissue Liver
[1] = 10 mg/kg, 3 h, tissue Blood, dose level Low
[2] = 10 mg/kg, 3 h, tissue Plasma, dose level Low
[3] = 10 mg/kg, 6 h, tissue Blood, dose level Low
[4] = 10 mg/kg, 6 h, tissue Plasma, dose level Low
[5] = 10 mg/kg, 9 h, tissue Blood, dose level Low
[6] = 10 mg/kg, 9 h, tissue Plasma, dose level Low
[7] = 10 mg/kg, 24 h, tissue Blood, dose level Low
[8] = 10 mg/kg, 24 h, tissue Plasma, dose level Low

With CARBOPLATIN the Bas [1] was 0%, the Eos [1] was 1% and the Fbg [1] was 269.2 mg/dL. The Hb [1] was 12.9 g/dL, the Lym [1] was 80.4% and the MCH [1] was 21.1 pg. For the same sequence, the MCHC [1] was 32%, the MCV [1] was 66 fL and the Mono [1] was 2.4%. For the same sequence, the PT [1] was 15.4 s, the Plat [1] was 126.7 x10_4/uL and the RBC [1] was 612.6 x10_4/ul. It also gave a Ret [1] of 6.2%, a WBC [1] of 92.7 x10_2/uL and a KIDNEY_L (10 mg/kg, 3 h, dose level Low) of 1 g. For the same sequence, the KIDNEY_R (10 mg/kg, 3 h, dose level Low) was 0.9 g, the KIDNEY_TOTAL (10 mg/kg, 3 h, dose level Low) was 1.9 g and the LIVER (10 mg/kg, 3 h, dose level Low) was 9.7 g. For the same sequence, the ALP [2] was 1526 IU/L, the ALT [2] was 43.6 IU/L and the AST [2] was 85.4 IU/L. It also gave a CRE [2] of 0.2 mg/dL, a DBIL [2] of 0.002 mg/dL and a GLC [2] of 185 mg/dL. It also gave an IP [2] of 7.9 mg/dL, a K [2] of 3.9 meq/L and an LDH [2] of 228.2 IU/L. The PL [2] was 124.8 mg/dL, the RALB [2] was 2.9 g/dL and the TBIL [2] was 0.016 mg/dL. For the same sequence, the TC [2] was 68.4 mg/dL, the TG [2] was 55.2 mg/dL and the TP [2] was 5.2 g/dL. For the same sequence, the gamma-GTP [2] was 1.2 IU/L, the TERMINAL_BW (10 mg/kg, 6 h, dose level Low) was 204.9 g and the APTT [3] was 24.2 s. It also gave a Bas [3] of 0%, an Eos [3] of 1% and a Fbg [3] of 286.8 mg/dL. For the same sequence, the Ht [3] was 41.2%, the Lym [3] was 77.6% and the MCH [3] was 20.6 pg. For the same sequence, the MCHC [3] was 32.2%, the MCV [3] was 64 fL and the Mono [3] was 2.8%. For the same sequence, the Neu [3] was 17.8%, the PT [3] was 15.9 s and the Plat [3] was 131 x10_4/uL. For the same sequence, the RBC [3] was 643.6 x10_4/ul, the Ret [3] was 6.3% and the WBC [3] was 115.8 x10_2/uL. It also gave a KIDNEY_L (10 mg/kg, 6 h, dose level Low) of 1 g, a KIDNEY_R (10 mg/kg, 6 h, dose level Low) of 1 g and a KIDNEY_TOTAL (10 mg/kg, 6 h, dose level Low) of 2 g. It also gave an LIVER (10 mg/kg, 6 h, dose level Low) of 9.1 g, an ALP [4] of 1291.4 IU/L and an ALT [4] of 43.4 IU/L. For the same sequence, the BUN [4] was 10 mg/dL, the CRE [4] was 0.2 mg/dL and the DBIL [4] was 0 mg/dL. For the same sequence, the GLC [4] was 180.6 mg/dL, the IP [4] was 9.1 mg/dL and the K [4] was 4.3 meq/L. It also gave an LDH [4] of 174.2 IU/L, a PL [4] of 134.6 mg/dL and an RALB [4] of 3 g/dL. It also gave a TBIL [4] of 0.016 mg/dL, a TC [4] of 72.8 mg/dL and a TG [4] of 76.2 mg/dL. The TP [4] was 5.5 g/dL, the gamma-GTP [4] was 1.6 IU/L and the TERMINAL_BW (10 mg/kg, 9 h, dose level Low) was 197.5 g. For the same sequence, the APTT [5] was 25.3 s, the Bas [5] was 0% and the Eos [5] was 1%. It also gave a Fbg [5] of 294.6 mg/dL, a Ht [5] of 40.2% and a Lym [5] of 73%. It also gave an MCHC [5] of 32.6%, a Mono [5] of 2.4% and a Neu [5] of 23.4%. For the same sequence, the PT [5] was 15.7 s, the Plat [5] was 131.4 x10_4/uL and the RBC [5] was 644.2 x10_4/ul. For the same sequence, the Ret [5] was 5.7%, the WBC [5] was 86.3 x10_2/uL and the KIDNEY_L (10 mg/kg, 9 h, dose level Low) was 0.9 g. The KIDNEY_R (10 mg/kg, 9 h, dose level Low) was 0.9 g, the KIDNEY_TOTAL (10 mg/kg, 9 h, dose level Low) was 1.8 g and the LIVER (10 mg/kg, 9 h, dose level Low) was 8 g. The ALP [6] was 1344 IU/L, the ALT [6] was 37.4 IU/L and the AST [6] was 77 IU/L. It also gave a BUN [6] of 11.2 mg/dL, a CRE [6] of 0.2 mg/dL and a DBIL [6] of 0 mg/dL. For the same sequence, the GLC [6] was 177.8 mg/dL, the IP [6] was 9.3 mg/dL and the K [6] was 4.4 meq/L. The LDH [6] was 180.2 IU/L, the Na [6] was 140 meq/L and the PL [6] was 121 mg/dL. The RALB [6] was 2.9 g/dL, the TBIL [6] was 0.012 mg/dL and the TC [6] was 71.8 mg/dL. It also gave a TG [6] of 44.6 mg/dL, a TP [6] of 5.3 g/dL and a gamma-GTP [6] of 1.4 IU/L. For the same sequence, the TERMINAL_BW (10 mg/kg, 24 h, dose level Low) was 204.3 g, the APTT [7] was 23.3 s and the Bas [7] was 0%. It also gave an Eos [7] of 0.6%, a Fbg [7] of 298.2 mg/dL and a Ht [7] of 40.6%. For the same sequence, the Lym [7] was 80.2%, the MCHC [7] was 32.1% and the MCV [7] was 63.8 fL. The Mono [7] was 2.8%, the PT [7] was 16.6 s and the Plat [7] was 122.3 x10_4/uL. The RBC [7] was 637.8 x10_4/ul, the Ret [7] was 4.7% and the WBC [7] was 78.9 x10_2/uL. For the same sequence, the KIDNEY_L (10 mg/kg, 24 h, dose level Low) was 0.9 g, the KIDNEY_R (10 mg/kg, 24 h, dose level Low) was 1 g and the KIDNEY_TOTAL (10 mg/kg, 24 h, dose level Low) was 1.9 g. The LIVER (10 mg/kg, 24 h, dose level Low) was 9 g, the ALP [8] was 1748.8 IU/L and the AST [8] was 69.8 IU/L. It also gave a BUN [8] of 15.6 mg/dL, a CRE [8] of 0.2 mg/dL and a DBIL [8] of 0 mg/dL. For the same sequence, the GLC [8] was 180.8 mg/dL, the IP [8] was 7.2 mg/dL and the K [8] was 4.5 meq/L. It also gave an LDH [8] of 208.6 IU/L, a PL [8] of 140.6 mg/dL and an RALB [8] of 3.1 g/dL. The TBIL [8] was 0.006 mg/dL, the TC [8] was 74.2 mg/dL and the TG [8] was 75.6 mg/dL. The TP [8] was 5.5 g/dL, the gamma-GTP [8] was 1.6 IU/L and the TERMINAL_BW (30 mg/kg, 3 h, dose level Middle) was 205.5 g.
